One may read the solubility as the dissolved amount per volume that the medium holds.

SMILES strings stand for the structures. Converted amounts (≈) assume the structure as drawn. Where a SMILES comes first, the peptide text is derived from it.

Conditions in the first series: not given
`CCOCCOC(=O)CCCCCCCCC(=O)OCCOCC` had a solubility of 0.635 mM (≈ 220 µg/mL).
`CC(C)OC(=O)C(C)(C)O` had a solubility of 1030 mM (≈ 150000 µg/mL).
On the same count and under the same terms, then `O=C(O)C(=O)C(c1ccccc1)c1ccccc1`, with 4.62 mM (≈ 1110 µg/mL).
On the same count and under the same terms, the result for `Cc1ccc(NO)cc1` reads 162 mM (≈ 20000 µg/mL); that for `O=C(O)/C=C/CBr`, 182 mM (≈ 30000 µg/mL); that for `CNCl`, 1910 mM (≈ 125000 µg/mL).
The compound `C[Si](C)(C)CN` returned a solubility of 17.3 mM (≈ 1790 µg/mL).
Same read-out and setting: then `CCC(Cl)(CC)C(N)=O`, with 93.6 mM (≈ 14000 µg/mL).
Same read-out and setting: the result for `O=C(O)C(Cl)(Cl)CCCl` reads 261 mM (≈ 50000 µg/mL); that for `CCCCOCCOC(N)=O`, 310 mM (≈ 50000 µg/mL).
Still for that read-out and setting: the result for `CCCCOCCOCCOC(N)=O` reads 487 mM (≈ 100000 µg/mL); that for `O=S(=O)(O)c1ncc[nH]1`, 844 mM (≈ 125000 µg/mL).
Regarding `C1COC2(C1)CCCO2`, the solubility turned out to be 780 mM (≈ 100000 µg/mL).
Still for that read-out and setting: then `O=C(O)CC1(CC(=O)O)OCOC1=O`, with 245 mM (≈ 50000 µg/mL); and `C[C@@H](O)CCCC=O`, with 344 mM (≈ 40000 µg/mL).
The same measure, in the same setting: the result for `CCCSS(=O)CCC` (centres undefined) reads 120 mM (≈ 20000 µg/mL); that for `Cn1c(C(N)=O)c(C(N)=O)c2ccccc21`, 15.2 mM (≈ 3300 µg/mL); that for `CCCCOC(=O)CCO`, 51.3 mM (≈ 7500 µg/mL).
Same read-out and setting: the result for `NC(CC(=O)O)c1cccc2ccccc12` (centres undefined) reads 25.7 mM (≈ 5530 µg/mL); that for `Oc1ccccc1Oc1ccccc1`, 0.591 mM (≈ 110 µg/mL); that for `O=S(=O)(O)c1ccc(/N=N/c2c(O)ccc3ccccc23)c2ccccc12`, 68.7 mM (≈ 26000 µg/mL).
In turn, `CCOCCOC(=O)CCCCC(=O)OCCOCC` registered a solubility of 8.61 mM (≈ 2500 µg/mL).
On the same count and under the same terms, the result for `COc1ccc(OC)c([N+](=O)[O-])c1` reads 0.764 mM (≈ 140 µg/mL); that for `CC(C)[C@H](NC(=O)CN)C(=O)O` (H-Gly-Val-OH), 2870 mM (≈ 500000 µg/mL).
Same read-out and setting: then `Nc1ccc(C#Cc2ccc(N)cc2)cc1`, with 3.69 mM (≈ 769 µg/mL); and `CCC1OCCO1`, with 1960 mM (≈ 200000 µg/mL).
Still for that read-out and setting: the result for `CC(C)CCOCC(O)COCCC(C)C` reads 43 mM (≈ 10000 µg/mL); that for `NNC(=O)[C@H](O)[C@@H](O)[C@H](O)[C@H](O)CO`, 317 mM (≈ 66700 µg/mL).

Still in this series, the particulars now being: 20 °C.
In turn, `O=C(O)CNC(=O)CNS(=O)(=O)c1ccc2ccccc2c1` showed a solubility of 2.02 mM (≈ 650 µg/mL).
On the same count and under the same terms, then `Cn1c(=O)cnc2cncnc21`, with 123 mM (≈ 20000 µg/mL); and `O=CCCCCCCCC(=O)O`, with 110 mM (≈ 19000 µg/mL).
Compound `O=C(CCCCC(=O)NCCO)NCCO` displayed a solubility of 2580 mM (≈ 600000 µg/mL).
On the same count and under the same terms, then `NC(=O)N/N=C/[C@H](O)[C@@H](O)[C@H](O)CO`, with 743 mM (≈ 154000 µg/mL).
For `NN=c1nc[nH]c2nccnc12`, the solubility was determined as 13.7 mM (≈ 2220 µg/mL).
Still for that read-out and setting: then `O=CC(O)C(O)C(O)[C@H](O)C(O)CO` (stereo in doubt), with 476 mM (≈ 100000 µg/mL); and `CC(C)COC(=O)c1ccc(N)cc1`, with 1.14 mM (≈ 220 µg/mL); and `CC(=O)C(=O)c1ccccc1`, with 17.5 mM (≈ 2600 µg/mL).
Same read-out and setting: the result for `OCC(O)C1OC(Oc2ccccc2)C(O)C(O)C1O` (centres undefined) reads 27.9 mM (≈ 8000 µg/mL); that for `Cc1nc2cncnc2n(C)c1=O`, 32.4 mM (≈ 5710 µg/mL); that for `CN(C)c1ncnc2nccnc12`, 95.1 mM (≈ 16700 µg/mL).
The compound `O=C(O)C(Br)=C(Br)Br` yielded a solubility of 43.7 mM (≈ 13500 µg/mL).
Same read-out and setting: the result for `CC1NC(C)SC(C)S1` (centres undefined) reads 42.9 mM (≈ 7000 µg/mL).
`Cn1cnc2c(=O)n(C)c(=O)n(C)c2c1=O`: the solubility was 10.4 mM (≈ 2300 µg/mL).
As for `CN(C)c1nc2c[nH]cnc-2n1`, the solubility is 40.9 mM (≈ 6670 µg/mL).
The same measure, in the same setting: then `CC(=O)/C(=N/O)c1ccccc1`, with 4.29 mM (≈ 700 µg/mL).
Still for that read-out and setting: then `COCc1ccc(C=O)o1`, with 317 mM (≈ 44400 µg/mL); and `Cc1ccc(P(=O)(O)O)c(C)c1`, with 80.6 mM (≈ 15000 µg/mL).
`O=C1CC(c2ccccc2)CC(=O)C1[N+](=O)[O-]` (centres undefined) returned a solubility of 21.4 mM (≈ 5000 µg/mL).
Same read-out and setting: then `C[C@H](NC=O)C(=O)O` (racemic), with 1020 mM (≈ 120000 µg/mL); and `CCc1nc2cnc(O)nc2nc1CC`, with 5.44 mM (≈ 1110 µg/mL); and `Nc1ccncc1`, with 885 mM (≈ 83300 µg/mL).
On the same count and under the same terms, the result for `COC(=O)c1cc(O)c(OC)c(O)c1` reads 25.2 mM (≈ 5000 µg/mL); that for `Oc1cnc2ccccc2c1`, 4.05 mM (≈ 588 µg/mL).
Same read-out and setting: the result for `COc1ncc2nccnc2n1` reads 77.1 mM (≈ 12500 µg/mL); that for `CC(=O)NC(NC(C)=O)c1ccccc1`, 48.5 mM (≈ 10000 µg/mL).
Turning to `CC=CC(=O)Nc1ccc(O)cc1`, the solubility came to 2.26 mM (≈ 400 µg/mL).
Compound `CCC(C)S` (centres undefined) came in with a solubility of 14.6 mM (≈ 1320 µg/mL).
With `CC1CCC2(CCC(C)O2)O1` (centres undefined), the solubility was determined as 356 mM (≈ 55600 µg/mL).
Same read-out and setting: the result for `COc1c(C(=O)O)cccc1C(=O)O` reads 5.1 mM (≈ 1000 µg/mL); that for `CCC(O)C(Cl)(Cl)Cl` (centres undefined), 113 mM (≈ 20000 µg/mL); that for `CCCc1nnc(NS(=O)(=O)c2ccc(N)cc2)s1`, 0.493 mM (≈ 147 µg/mL).
Compound `O=C(O)c1c(Cl)ccc2ccccc12` returned a solubility of 4.84 mM (≈ 1000 µg/mL).
Still for that read-out and setting: the result for `COC[C@@H](N)C(=O)O` (racemic) reads 4490 mM (≈ 535000 µg/mL).
On the same count and under the same terms, then `CCCCCCCS`, with 0.07 mM (≈ 9.26 µg/mL).
Still for that read-out and setting: then `NC(=O)C(Br)Br`, with 87.6 mM (≈ 19000 µg/mL); and `Nc1ncc2nccnc2n1`, with 5.04 mM (≈ 741 µg/mL); and `OCc1c(Cl)c(Cl)c(Cl)c(Cl)c1Cl`, with 0.00713 mM (≈ 2 µg/mL).
On to `CC(=O)C1CC(CC(=O)O)C1(C)C` (centres undefined), for which the solubility amounted to 266 mM (≈ 49000 µg/mL).
Still for that read-out and setting: the result for `CC(C)COC(=O)c1c(C(=O)O)cccc1[N+](=O)[O-]` reads 0.898 mM (≈ 240 µg/mL).
